# Assays:
# Format in all cases: toxicity, cell-based
# HEK-293T = experiment: Incucyte cell viability with HEK293T; conditions: human, 10 µM, compound concentration 10 uM
# Fibroblast = experiment: Incucyte cell viability with human fibroblast; conditions: 10 µM, compound concentration 10 uM
# U2OS = experiment: Incucyte cell viability with U2OS; conditions: human, 10 µM, compound concentration 10 uM
# Further: unitless GR value; below 1 slowed growth and below 0 cell loss.
Structure (SMILES),"Growth Rate (HEK-293T; 0 h, replicate number 2)","Growth Rate (HEK-293T; 6 h, replicate number 1)","Growth Rate (HEK-293T; 6 h, replicate number 2)","Growth Rate (HEK-293T; 12 h, replicate number 2)","Growth Rate (HEK-293T; 18 h, replicate number 1)","Growth Rate (HEK-293T; 18 h, replicate number 2)","Growth Rate (HEK-293T; 24 h, replicate number 1)","Growth Rate (HEK-293T; 24 h, replicate number 2)","Growth Rate (Fibroblast; 12 h, replicate number 2)","Growth Rate (Fibroblast; 18 h, replicate number 1)","Growth Rate (Fibroblast; 18 h, replicate number 2)","Growth Rate (Fibroblast; 24 h, replicate number 1)","Growth Rate (Fibroblast; 24 h, replicate number 2)","Growth Rate (U2OS; 6 h, replicate number 2)","Growth Rate (U2OS; 18 h, replicate number 2)","Growth Rate (U2OS; 24 h, replicate number 2)","Growth Rate (Fibroblast; 0 h, replicate number 2)","Growth Rate (Fibroblast; 6 h, replicate number 2)","Growth Rate (Fibroblast; 12 h, replicate number 1)","Growth Rate (Fibroblast; 6 h, replicate number 1)",also measured
O=C1Nc2ccc(C(=O)c3ccco3)cc2C1=Cc1cc(Cl)c(O)c(Cl)c1 [GW406108X],0.57,0.79,0.56,0.31,0.41,0.17,0.24,0.11,1,1,0.83,0.7,0.64,-0.19,0.33,0.38,–,–,–,–,"Growth Rate (HEK-293T; 0 h, replicate number 1): -1; Growth Rate (HEK-293T; 12 h, replicate number 1): 0.25; Growth Rate (Fibroblast; 0 h, replicate number 1): -1; Growth Rate (U2OS; 12 h, replicate number 1): 0.5; Growth Rate (U2OS; 12 h, replicate number 2): 0.24; Growth Rate (U2OS; 18 h, replicate number 1): 0.4; Growth Rate (U2OS; 24 h, replicate number 1): 0.56"
Cc1cc(SCc2sc(-c3ccc(C(F)(F)F)cc3)nc2C)ccc1OCC(=O)O [GW501516],-0.84,0.99,0.71,0.95,1,0.93,0.98,0.83,0.31,–,0.73,–,0.83,0.95,0.92,0.98,0.89,0.42,0.83,–,"Growth Rate (U2OS; 0 h, replicate number 2): 0.72; Growth Rate (U2OS; 12 h, replicate number 2): 0.77"
CCn1c(-c2nonc2N)nc2ccccc21 [GW549034X],-0.14,–,–,–,–,–,–,–,–,–,–,–,–,–,0.97,0.93,-0.96,–,–,–,"Growth Rate (HEK-293T; 0 h, replicate number 1): -1; Growth Rate (Fibroblast; 0 h, replicate number 1): -1; Growth Rate (U2OS; 0 h, replicate number 1): -1"
Cc1nc(-c2ccc(C(F)(F)F)cc2)sc1C(=O)NCc1ccc(OC(C)(C)C(=O)O)cc1 [GW590735],0.73,–,0.83,0.93,–,0.92,–,0.72,–,0.71,–,0.83,–,–,–,–,0.77,0.99,0.82,0.76,"Growth Rate (HEK-293T; 0 h, replicate number 1): 0.96; Growth Rate (U2OS; 0 h, replicate number 1): -0.11; Growth Rate (U2OS; 6 h, replicate number 1): 0.91; Growth Rate (U2OS; 12 h, replicate number 1): 0.91; Growth Rate (U2OS; 18 h, replicate number 1): 0.93; Growth Rate (U2OS; 24 h, replicate number 1): 0.97"
CCS(=O)(=O)c1ccc(OC)c(Nc2ncc(-c3cccc(F)c3)o2)c1 [GW621970X],–,-0.48,-0.44,0.2,0.22,0.63,0.43,0.8,0.24,0.72,0.7,0.73,0.99,0.74,0.86,0.77,-0.51,0.01,0.4,-0.04,"Growth Rate (HEK-293T; 12 h, replicate number 1): -0.12; Growth Rate (U2OS; 12 h, replicate number 2): 0.84; Growth Rate (U2OS; 18 h, replicate number 1): 0.79; Growth Rate (U2OS; 24 h, replicate number 1): 0.94"
COc1ccc(COc2ccc(Cc3cnc(N)nc3N)cc2OC)cc1 [GW632580X],–,0.7,–,0.92,0.93,0.87,0.91,0.92,0.22,0.86,0.48,0.78,0.57,–,–,–,-0.61,0.45,0.73,0.69,"Growth Rate (HEK-293T; 12 h, replicate number 1): 0.83; Growth Rate (U2OS; 0 h, replicate number 2): 0.63; Growth Rate (U2OS; 6 h, replicate number 1): 0.52; Growth Rate (U2OS; 12 h, replicate number 1): 0.7; Growth Rate (U2OS; 18 h, replicate number 1): 0.63; Growth Rate (U2OS; 24 h, replicate number 1): 0.89"
O=C(CCCN1CCC(O)(c2ccc(Cl)cc2)CC1)c1ccc(F)cc1 [HALOPERIDOL],-0.68,–,0.42,0.63,–,0.65,–,0.75,-0.02,0.49,0.22,0.65,0.4,0.98,1,–,–,-0.32,0.4,0.04,"Growth Rate (U2OS; 0 h, replicate number 1): 0.26; Growth Rate (U2OS; 0 h, replicate number 2): 0.79; Growth Rate (U2OS; 12 h, replicate number 1): -0.1"
C=CC(=O)N1CCC[C@@H](n2nc(-c3ccc(Oc4ccccc4)cc3)c3c(N)ncnc32)C1 [IBRUTINIB],-1,-0.5,-0.48,-0.25,0.36,0.27,0.51,0.25,0.79,0.66,–,–,–,0.61,–,0.55,–,0.23,–,0.04,"Growth Rate (HEK-293T; 12 h, replicate number 1): -0.04; Growth Rate (U2OS; 0 h, replicate number 1): -0.06; Growth Rate (U2OS; 0 h, replicate number 2): 0.8; Growth Rate (U2OS; 6 h, replicate number 1): -0.04; Growth Rate (U2OS; 12 h, replicate number 1): 0.53; Growth Rate (U2OS; 12 h, replicate number 2): 0.61; Growth Rate (U2OS; 18 h, replicate number 1): 0.56; Growth Rate (U2OS; 24 h, replicate number 1): 0.63"
O=C1NC(c2cccc([N+](=O)[O-])c2)=CCN1c1ccccc1O [ICILLIN],0.85,–,–,–,–,–,–,–,0.48,–,0.89,–,0.91,0.82,0.96,0.93,-0.28,0.04,0.02,-0.8,"Growth Rate (Fibroblast; 0 h, replicate number 1): 0.99; Growth Rate (U2OS; 0 h, replicate number 2): 1; Growth Rate (U2OS; 12 h, replicate number 2): 0.76"
CC[C@H](Nc1ncnc2[nH]cnc12)c1nc2cccc(F)c2c(=O)n1-c1ccccc1 [IDELALISIB],–,0.29,-0.34,0.12,0.31,0.29,0.38,0.36,0.49,–,0.95,0.92,–,0.92,–,0.94,-0.51,0.25,–,–,"Growth Rate (HEK-293T; 12 h, replicate number 1): 0.62; Growth Rate (Fibroblast; 0 h, replicate number 1): 0.15"

# Reference: ChEMBL document CHEMBL5303304, “EUbOPEN Chemogenomics Library - IncuCyte” (2023)
